Results from PMC11129349, “Synthesis and Evaluation of a Novel PET Radioligand for Imaging Glutaminyl Cyclase Activity as a Biomarker for Detecting Alzheimer’s Disease” (ACS Sensors, 2024).

Target: T1, glutaminyl cyclase (QC; human recombinant glutaminyl peptide cyclotransferase) (Homo sapiens, UniProt Q16769)
T1 construct: gene QPCT
Assay: PGPEP1-coupled fluorescence assay with H-Gln-AMC substrate, recombinant human QC
Assay type: biochemical

T1 sequence (Q16769 29-361): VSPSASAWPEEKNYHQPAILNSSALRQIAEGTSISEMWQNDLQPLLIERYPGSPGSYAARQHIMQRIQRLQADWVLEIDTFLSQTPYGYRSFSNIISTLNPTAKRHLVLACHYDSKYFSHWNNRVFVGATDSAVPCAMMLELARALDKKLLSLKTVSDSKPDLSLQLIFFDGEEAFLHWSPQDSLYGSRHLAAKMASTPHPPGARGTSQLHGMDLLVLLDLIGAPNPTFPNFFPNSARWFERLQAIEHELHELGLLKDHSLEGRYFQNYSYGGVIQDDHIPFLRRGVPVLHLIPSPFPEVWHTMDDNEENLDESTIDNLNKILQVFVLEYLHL

IC50: 56.3 nM
Structure (SMILES): O=C1NC[C@H](c2ccc(OCCCF)cc2)N1c1ccc2[nH]cnc2c1 [compound 8, S-[19F]PB0822]
